# “Also recorded” adds a separate entry of the source. Where two headings read alike, the source gives them in different places. Marks after values point to notes of the source that are not given here.
# Legend:
# [1] = test system: Male Swiss Webster mice; test: mouse tetrad assay: overall cannabimimetic action; conditions: ip, result in words
# [2] = test system: Male Swiss Webster mice; test: mouse tetrad assay: locomotor activity; conditions: for hypolocomotive activity: ip, across doses, result in words; for locomotor activity: total photobeam interruptions, last 10 min of 30 min, mean ± SEM
# [3] = target: full-length human cannabinoid-1 receptor (Homo sapiens, UniProt P21554); conditions: radioligand binding
# [4] = target: CB2 receptor (Homo sapiens, UniProt P34972); test: functional assays at CB2 receptor; assay type: biochemical; conditions: result in words
# [5] = target: full-length human cannabinoid-2 receptor (Homo sapiens, UniProt P34972); test: CB2 receptor radioligand binding assay
# [6] = target: CB1 receptor (Homo sapiens, UniProt P21554); test: functional assays at CB1 receptor; assay type: biochemical; conditions: result in words
# [7] = test system: Male Swiss Webster mice; test: mouse tetrad assay: rectal temperature; conditions: difference between basal and postinjection temperatures, mean ± SEM
# [8] = test system: Male Swiss Webster mice; test: mouse tetrad assay: tail-flick latency; conditions: cutoff 15 s, mean ± SEM
# [9] = test system: Male Swiss Webster mice; test: mouse tetrad assay: catalepsy; conditions: latency to drop, cutoff 180 s, mean ± SEM
# [10] = test system: Male Swiss Webster mice; test: mouse tetrad assay: hot-plate latency; conditions: cutoff 45 s, mean ± SEM
# Sequence of CB1 receptor (P21554 whole entry): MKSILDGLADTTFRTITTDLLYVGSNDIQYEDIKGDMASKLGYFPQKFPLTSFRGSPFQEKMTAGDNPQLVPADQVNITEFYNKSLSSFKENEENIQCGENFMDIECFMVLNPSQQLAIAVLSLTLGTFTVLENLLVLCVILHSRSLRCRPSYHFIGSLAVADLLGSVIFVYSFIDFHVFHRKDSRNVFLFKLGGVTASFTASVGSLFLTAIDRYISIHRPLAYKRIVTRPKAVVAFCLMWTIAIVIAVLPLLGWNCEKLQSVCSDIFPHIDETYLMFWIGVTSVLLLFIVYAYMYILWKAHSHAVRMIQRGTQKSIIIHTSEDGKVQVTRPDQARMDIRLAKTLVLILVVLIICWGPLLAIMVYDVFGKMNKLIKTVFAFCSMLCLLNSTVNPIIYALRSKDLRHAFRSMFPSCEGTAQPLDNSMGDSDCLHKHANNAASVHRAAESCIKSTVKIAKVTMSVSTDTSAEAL
# Sequence of full-length human cannabinoid-1 receptor (P21554 whole entry): as above
# Sequence of CB2 receptor (P34972 whole entry): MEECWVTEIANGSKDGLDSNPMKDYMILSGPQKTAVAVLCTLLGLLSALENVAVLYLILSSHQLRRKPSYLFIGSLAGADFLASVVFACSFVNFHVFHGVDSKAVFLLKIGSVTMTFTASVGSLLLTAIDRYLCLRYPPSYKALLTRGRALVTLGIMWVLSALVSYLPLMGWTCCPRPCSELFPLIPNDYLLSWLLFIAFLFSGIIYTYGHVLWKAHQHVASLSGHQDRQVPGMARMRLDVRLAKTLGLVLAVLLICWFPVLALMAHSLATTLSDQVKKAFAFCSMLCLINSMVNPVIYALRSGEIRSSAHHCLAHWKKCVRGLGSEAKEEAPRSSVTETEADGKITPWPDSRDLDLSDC
# Sequence of full-length human cannabinoid-2 receptor (P34972 whole entry): as above
compound,measurement,setting,value
"CCCCCc1cc(O)c2c(c1)OC(C)(C)[C@@H]1C[C@H](O)C(C)=C[C@@H]21 [Compound 1, 8α-hydroxy-Δ^9-tetrahydrocannabinol]",cannabimimetic activity in the mouse tetrad assay,[1]; dose of 20 mg/kg,did not exhibit typical cannabimimetic activity
"CCCCCc1cc(O)c2c(c1)OC(C)(C)[C@@H]1C[C@@H](O)C(C)=C[C@@H]21 [Compound 2, 8β-hydroxy-Δ^9-tetrahydrocannabinol]",cannabimimetic-like action in the mouse tetrad assay,[1]; at the doses tested,lacked any cannabimimietic activity
same,cannabimimetic-like action in the mouse tetrad assay,[1]; doses up to 20 mg/kg,lacked typical cannabimimetic-like action
same,hypolocomotive activity,[2],dose-dependent hypolocomotive effect only
same,hypolocomotive activity,[2]; listed as compound 2,significant dose-dependent hypolocomotive activity
"CCCCCc1cc(O)c2c(c1)OC(C)(C)[C@@H]1CC=C(C)[C@H](O)[C@@H]21 [Compound 3, 10α-hydroxy-Δ^8-tetrahydrocannabinol]",cannabimimetic-like action in the mouse tetrad assay,[1]; at the doses tested,most potent cannabimimetic-like actions; also recorded: typical cannabimimetic actions
same,binding affinity (nM) CB1,[3],nearly as tightly as THC
same,binding affinity (nM) CB1,[3]; listed as compound 3,highest affinity
same,functional activity at CB2 receptor,[4],partial agonist
same,binding affinity (nM) CB2,[5],nearly as tightly as THC
same,functional activity at CB1 receptor,[6],partial agonist
same,functional activity at CB1 receptor,[6]; listed as compound 3,partial CB1 agonist
"CCCCCc1cc(O)c2c(c1)OC(C)(C)[C@@H]1CC=C(C)[C@@H](O)[C@@H]21 [Compound 4, 10β-hydroxy-Δ^8-tetrahydrocannabinol]",effects in the mouse tetrad assay,"[1]; 40 mg/kg (highest tested dose), 40 mg/kg",hypothermic and antinociceptive activity
same,cannabimimetic-like action in the mouse tetrad assay,[1]; at the doses tested,partial cannabimimetic action
"CCCCCc1cc(O)c2c(c1)OC(C)(C)[C@@H]1CC[C@@]3(C)O[C@H]3[C@@H]21 [Compound 6, 9β,10β-epoxyhexahydrocannabinol]",cannabimimetic-like action in the mouse tetrad assay,[1]; at the doses tested,most potent cannabimimetic-like actions
"CCCCCc1cc(O)c2c(c1)OC(C)(C)[C@@H]1CC=C(C)C[C@@H]21 [Δ^8-THC, Δ^8-tetrahydrocannabinol]",decrease in rectal temperature (°C),[7]; 5 mg/kg ip,0.12 ± 0.09 °C
same,decrease in rectal temperature (°C),[7]; 20 mg/kg ip,1.96 ± 0.37 ^a °C
(−)-trans-Δ^9-tetrahydrocannabinol [Δ^9-THC],tail-flick latency (% MPE),[8]; 10 mg/kg ip,6.52 ± 2.00 % MPE
same,tail-flick latency (% MPE),[8]; 20 mg/kg ip,42.21 ± 17.04 ^b % MPE
same,tail-flick latency (% MPE),[8]; 40 mg/kg ip,51.96 ± 13.22 ^c % MPE
same,catalepsy latency,[9]; 10 mg/kg ip,14.4 ± 4.16 s
same,catalepsy latency (s),[9]; 20 mg/kg ip,47.9 ± 20.04 ^b s
same,catalepsy latency (s),[9]; 40 mg/kg ip,37.7 ± 14.64 ^a s
same,decrease in rectal temperature (°C),[7]; 10 mg/kg ip,2.05 ± 0.25 °C
same,decrease in rectal temperature (°C),[7]; 20 mg/kg ip,4.25 ± 0.78 ^c °C
same,decrease in rectal temperature (°C),[7]; 40 mg/kg ip,4.80 ± 0.28 ^c °C
same,hot-plate latency (% MPE),[10]; 10 mg/kg ip,29.04 ± 5.37 ^c % MPE
same,hot-plate latency (% MPE),[10]; 20 mg/kg ip,46.85 ± 9.08 ^c % MPE
same,hot-plate latency (% MPE),[10]; 40 mg/kg ip,38.18 ± 4.05 ^c % MPE
same,locomotor activity,[2]; 10 mg/kg ip,190.9 ± 33.8 ^c
same,locomotor activity,[2]; 20 mg/kg ip,276.2 ± 52.6 ^c
same,locomotor activity,[2]; 40 mg/kg ip,194.0 ± 49.2 ^c

# From PMC4880513 (Journal of natural products, 2015)
